Consider 7 compounds from ChEMBL document CHEMBL3877333, “Bicyclic Ketone Sulfonamide Compounds” (ACS Med Chem Lett, 2017).

This assay has as its target Sodium channel protein type 9 subunit alpha (Homo sapiens, UniProt Q15858). The experiment in a line: Inhibition of human Nav1.7 expressed in HEK293 cells at holding potential yielding 20 to 50% inactivation measured after 3 mins by patchXpress electrophysiology assay. It is filed as cell-based.

Chain of Sodium channel protein type 9 subunit alpha (Q15858 whole entry): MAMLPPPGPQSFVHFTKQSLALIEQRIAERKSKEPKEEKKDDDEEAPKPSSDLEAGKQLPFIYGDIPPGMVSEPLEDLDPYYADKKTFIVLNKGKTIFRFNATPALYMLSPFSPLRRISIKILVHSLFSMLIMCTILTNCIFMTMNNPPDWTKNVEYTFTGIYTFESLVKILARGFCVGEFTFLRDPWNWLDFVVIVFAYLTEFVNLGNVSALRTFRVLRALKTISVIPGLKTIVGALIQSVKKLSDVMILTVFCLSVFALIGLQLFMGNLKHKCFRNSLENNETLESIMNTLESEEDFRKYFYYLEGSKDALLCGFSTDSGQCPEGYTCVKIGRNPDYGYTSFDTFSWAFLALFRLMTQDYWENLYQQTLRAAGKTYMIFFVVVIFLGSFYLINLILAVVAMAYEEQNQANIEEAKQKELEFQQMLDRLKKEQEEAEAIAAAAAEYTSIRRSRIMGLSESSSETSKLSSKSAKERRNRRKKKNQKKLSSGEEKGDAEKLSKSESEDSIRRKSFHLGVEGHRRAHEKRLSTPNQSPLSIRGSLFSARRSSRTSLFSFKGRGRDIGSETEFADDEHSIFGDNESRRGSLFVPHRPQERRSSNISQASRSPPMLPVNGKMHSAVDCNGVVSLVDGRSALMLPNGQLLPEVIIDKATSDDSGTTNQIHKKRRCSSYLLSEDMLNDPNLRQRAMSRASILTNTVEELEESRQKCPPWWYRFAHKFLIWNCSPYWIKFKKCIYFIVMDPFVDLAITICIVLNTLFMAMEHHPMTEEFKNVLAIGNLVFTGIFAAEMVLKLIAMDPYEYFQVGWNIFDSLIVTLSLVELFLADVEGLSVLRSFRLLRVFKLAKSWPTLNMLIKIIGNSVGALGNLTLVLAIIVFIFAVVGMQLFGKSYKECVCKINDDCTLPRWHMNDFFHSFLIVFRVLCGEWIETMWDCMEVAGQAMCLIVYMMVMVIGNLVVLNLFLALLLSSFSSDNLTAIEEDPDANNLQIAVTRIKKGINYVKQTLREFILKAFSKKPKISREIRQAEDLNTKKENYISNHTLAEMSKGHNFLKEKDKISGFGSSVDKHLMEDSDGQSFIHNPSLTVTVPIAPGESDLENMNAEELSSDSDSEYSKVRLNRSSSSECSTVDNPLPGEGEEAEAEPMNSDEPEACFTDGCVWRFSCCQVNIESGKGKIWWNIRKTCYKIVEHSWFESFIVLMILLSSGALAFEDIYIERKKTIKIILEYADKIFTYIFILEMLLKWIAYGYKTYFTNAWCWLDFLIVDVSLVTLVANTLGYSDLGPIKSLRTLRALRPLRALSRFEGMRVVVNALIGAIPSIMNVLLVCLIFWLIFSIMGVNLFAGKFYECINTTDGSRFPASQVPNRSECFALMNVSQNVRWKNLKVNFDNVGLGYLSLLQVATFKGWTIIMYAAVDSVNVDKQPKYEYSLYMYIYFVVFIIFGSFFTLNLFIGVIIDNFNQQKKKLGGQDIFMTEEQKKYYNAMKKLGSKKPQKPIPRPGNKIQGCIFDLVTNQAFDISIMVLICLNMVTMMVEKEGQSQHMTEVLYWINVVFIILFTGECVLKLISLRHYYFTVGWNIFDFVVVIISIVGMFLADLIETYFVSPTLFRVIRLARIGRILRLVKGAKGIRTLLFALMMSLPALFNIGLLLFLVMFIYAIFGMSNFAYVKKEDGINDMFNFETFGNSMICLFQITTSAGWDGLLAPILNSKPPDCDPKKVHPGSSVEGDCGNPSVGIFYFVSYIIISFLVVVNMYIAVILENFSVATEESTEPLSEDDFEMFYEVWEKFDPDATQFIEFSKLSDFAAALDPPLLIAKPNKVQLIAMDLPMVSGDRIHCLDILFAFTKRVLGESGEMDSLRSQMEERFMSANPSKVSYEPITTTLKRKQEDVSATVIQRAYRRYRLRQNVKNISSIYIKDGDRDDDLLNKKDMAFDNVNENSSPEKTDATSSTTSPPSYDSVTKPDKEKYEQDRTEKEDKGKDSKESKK

Usually IC50 stands for the concentration needed to halve the response being measured. Higher therefore signals weaker potency. In turn, `COc1cc(-c2cc(OC)c(-n3c4c(ccc3=O)CN(S(=O)(=O)Nc3ccon3)CC4)cc2F)ccc1C` had a concentration for half-maximal inhibition (IC50) of 12.3 nM. This counts as double-digit nanomolar.
Consider `COc1cc(-c2ccc(F)c(F)c2)c(F)cc1-n1c2c(ccc1=O)CN(S(=O)(=O)Nc1ccon1)CC2`, for which the IC50 turned out to be 6.7 nM.
With `COc1cc(-c2ccc(F)c(F)c2)c(F)cc1-n1c2c(ccc1=O)CN(S(=O)(=O)Nc1cccnn1)CC2` the figure was 23.7 nM; with `COc1cc(-c2cc(F)cc(Cl)c2)c(F)cc1-n1c2c(ccc1=O)CN(S(=O)(=O)Nc1ccon1)CC2`, 4.3 nM.
`COc1cc(-c2ccc(Cl)c(C)c2)c(F)cc1-n1c2c(ccc1=O)CN(S(=O)(=O)Nc1cccnn1)CC2` had an IC50 of 19.6 nM.
With `COc1cc(-c2cccc(OC(F)F)c2)c(F)cc1-n1c2c(ccc1=O)CN(S(=O)(=O)Nc1ccon1)CC2` the figure was 5.5 nM; with `COc1cc(-c2cccc(C(F)(F)F)c2)c(F)cc1-n1c2c(ccc1=O)CN(S(=O)(=O)Nc1ccon1)CC2`, 4.7 nM.
